Reference: the NIST ThermoML archive (doi:10.1016/j.tca.2009.07.008)
± gives the expanded uncertainty stated by the source.

Assay: mn = molality of the nth substance listed, in mol/kg
Details: 303.15 K, 101 kPa, Liquid, Capillary tube (Ostwald / Ubbelohde) method

CCCCNCCCC [dibutylamine] + C1COCCO1
Details | viscosity [mPa·s]
m1 = 0.1225 | 1.065 ± 0.0078
m1 = 0.2369 | 1.053 ± 0.0078
m1 = 0.3608 | 1.04 ± 0.0077
m1 = 0.4533 | 1.031 ± 0.0077
m1 = 0.594 | 1.019 ± 0.0076
m1 = 0.7122 | 1.006 ± 0.0076
m1 = 0.8855 | 0.9937 ± 0.0075
m1 = 0.9669 | 0.9865 ± 0.0075
m1 = 1.138 | 0.9766 ± 0.0075

CCCCN [1-butanamine] + C1CCOC1
Details | viscosity [mPa·s]
m1 = 0.1429 | 0.329 ± 0.0047
m1 = 0.2304 | 0.3312 ± 0.0047
m1 = 0.5054 | 0.336 ± 0.0047
m1 = 0.588 | 0.3398 ± 0.0047
m1 = 0.7153 | 0.3442 ± 0.0048
m1 = 0.8391 | 0.3481 ± 0.0048
m1 = 1.009 | 0.351 ± 0.0048
m1 = 1.27 | 0.3549 ± 0.0048
m1 = 1.407 | 0.3619 ± 0.0048

CCCN [propan-1-amine] + C1CCOC1
Details | viscosity [mPa·s]
m1 = 0.1123 | 0.328 ± 0.0047
m1 = 0.2842 | 0.3315 ± 0.0047
m1 = 0.3986 | 0.3329 ± 0.0047
m1 = 0.5609 | 0.3353 ± 0.0047
m1 = 0.7487 | 0.3395 ± 0.0047
m1 = 0.8957 | 0.3412 ± 0.0048
m1 = 1.002 | 0.3436 ± 0.0048
m1 = 1.139 | 0.3453 ± 0.0048
m1 = 1.377 | 0.3513 ± 0.0048

CCCNCCC [dipropylamine] + C1COCCO1
Details | viscosity [mPa·s]
m1 = 0.0998 | 1.062 ± 0.0078
m1 = 0.2282 | 1.05 ± 0.0077
m1 = 0.341 | 1.039 ± 0.0077
m1 = 0.4787 | 1.027 ± 0.0077
m1 = 0.6261 | 1.012 ± 0.0076
m1 = 0.7266 | 1.001 ± 0.0075
m1 = 0.8461 | 0.9902 ± 0.0075
m1 = 0.9821 | 0.9801 ± 0.0075
m1 = 1.149 | 0.9661 ± 0.0074

CCCN(CCC)CCC [tripropylamine] + C1CCOC1
Details | viscosity [mPa·s]
m1 = 0.1317 | 0.3305 ± 0.0047
m1 = 0.2429 | 0.3364 ± 0.0047
m1 = 0.3465 | 0.3397 ± 0.0047
m1 = 0.4545 | 0.3447 ± 0.0048
m1 = 0.5811 | 0.3523 ± 0.0048
m1 = 0.6842 | 0.3577 ± 0.0048
m1 = 0.8378 | 0.3607 ± 0.0048
m1 = 0.9371 | 0.3681 ± 0.0049
m1 = 1.114 | 0.3753 ± 0.0049

CCCN [propan-1-amine] + C1COCCO1
Details | viscosity [mPa·s]
m1 = 0.1086 | 1.06 ± 0.0078
m1 = 0.2456 | 1.043 ± 0.0077
m1 = 0.3295 | 1.028 ± 0.0076
m1 = 0.478 | 1.014 ± 0.0076
m1 = 0.5767 | 0.9987 ± 0.0075
m1 = 0.7164 | 0.9852 ± 0.0074
m1 = 0.8321 | 0.9693 ± 0.0074
m1 = 1.028 | 0.9504 ± 0.0073
m1 = 1.116 | 0.9395 ± 0.0072

CCN(CC)CC [triethylamine] + C1CCOC1
Details | viscosity [mPa·s]
m1 = 0.1482 | 0.327 ± 0.0047
m1 = 0.3064 | 0.3293 ± 0.0047
m1 = 0.4546 | 0.3307 ± 0.0047
m1 = 0.588 | 0.3315 ± 0.0047
m1 = 0.7856 | 0.3361 ± 0.0047
m1 = 0.8993 | 0.3349 ± 0.0047
m1 = 1.056 | 0.3376 ± 0.0048
m1 = 1.24 | 0.3386 ± 0.0048
m1 = 1.418 | 0.341 ± 0.0048
